What all share (format): in vivo, mouse
The test system of assay [1] is atrial natriuretic peptide (ANP). In words: qRT-PCR of ANP mRNA in left ventricle after TAC/sham. Here is the method:
(§1) 11 to 13 week old male C57BL/6 mice were purchased from Charles River (Germany). Mice were housed in individually ventilated pathogen-free cages with free access to water and standard rodent chow. The animals were handled according to the principles of laboratory animal care (NIH publication No. 85-23, revised 1996), and animal procedures were approved by the local committee for animal care.
(§2) The first injection was performed 5 min prior to TAC or sham-operation procedure (described below) and repeated 4, 8, 12, 24, 36, 48 and 60 hrs after surgery. […]
(§3) Quantitative real-time PCR analysis was completed. […] RNA was dissolved in 100 μl of RNase-free water, and concentration was determined photometrically (absorbance at 260 nm) before storage at −80° C. […]
(§4) Real-time PCR was performed according to the manufacturer's protocol. […] Each sample was measured in triplicate wells and underwent 40 cycles of amplification on an ABI PRISM® Sequence Detection System (Applied Biosystems). CT values were determined with SDS Software 2.2 (Applied Biosystems) and relative quotients (RQ) were calculated following the ΔΔCT method (RQ target gene/GAPDH).
(§5) Statistics were calculated using Prism 4.05 (GraphPad Software Inc., CA, USA). All values are expressed as mean (M)±SEM. […]
For orientation: In qPCR the cycle at which signal appears reflects the starting amount.

The test system of assay [2] is IL-10. The assay can be described thus: qRT-PCR of IL-10 mRNA in left ventricle after TAC/sham. Conditions: for IL-10 mRNA level: three days after surgery, qRT-PCR, M ± SEM. Here is the method: as §1
The first injection was performed 5 min prior to TAC or sham-operation procedure (described below) and repeated 4, 8, 12, 24, 36, 48 and 60 hrs after surgery. Animals were randomly assigned into two groups, receiving either a tetrasodium salt of the compound of formula 1 (hereinafter “Eritoran tetrasodium”) or placebo. The catheter was flushed with 50 μl 0.9% NaCl before and 100 μl after each injection of 50 μl Eritoran tetrasodium (2.5 mg/ml vehicle; 5 mg/kg bodyweight/application; dosage adopted from Shimamoto et al., Circulation 2006, 114: 1270-1274) or placebo solution.
Treatment groups were separated into two subgroups, undergoing transverse aortic constriction (TAC) or sham operation. Surgery for TAC was achieved as published previously (see, e.g., Baumgarten et al., Circulation 2002, 105: 2192-2197 and Baumgarten et al., Basic Res Cardiol 2006, 101: 427-435). Mice were intubated in a supine position and mechanical ventilation was initiated (MiniVent 845, Hugo Sachs Elektronik, Germany). A left parasternal incision was performed. A suture was passed underneath the aorta and tied down on a 27 Gauge needle, which was immediately removed and allowed to achieve a standardised and previously validated decreased diameter of the aorta. For sham operation the suture was passed underneath the aorta without ligation. […]
as §3, §4
Statistics were calculated using Prism 4.05 (GraphPad Software Inc., CA, USA). All values are expressed as mean (M)±SEM. One-way ANOVA with Newman-Keuls post-hoc testing was performed for statistical analysis with the exception of TIMP and cytokine expression which were analysed with Kruskal-Wallis and Dunn's multiple comparison post-hoc testing Impact of TAC-Eritoran on IL-10 expression was analysed with Two-way ANOVA. […]

The test system of assay [3] is TIMP-4. The assay can be described thus: qRT-PCR of TIMP-4 mRNA in left ventricle after TAC/sham. The protocol: as §1, §2, §3, §4, §5
For assay [4], the system named is IL-6. In words: ELISA of IL-6 protein in myocardial tissue after TAC/sham. The protocol: as §1
The first injection was performed 5 min prior to TAC or sham-operation procedure (described below) and repeated 4, 8, 12, 24, 36, 48 and 60 hrs after surgery. Animals were randomly assigned into two groups, receiving either a tetrasodium salt of the compound of formula 1 (hereinafter “Eritoran tetrasodium”) or placebo. […]
For ELISA assays, proteins from snap-frozen myocardial tissue were isolated and cytosolic and nuclear proteins separated according to the manufacturer's protocol (NE-PER®, Nuclear and Cytoplasmic Extraction Kit, Pierce®, Thermo Scientific, IL, USA). Myocardial protein levels in the cytoplasmic fraction were detected with Quantikine mouse IL-1β as well as IL-6 ELISA (R&D Systems, […], USA) as described in the manufacturer's protocol. […] Protein concentration was determined by B CA protein assay (Pierce®).
as §5
For orientation: An ELISA detects its analyte on a solid surface through an enzyme-linked reagent.

The subject of assay [5] is IL-6. In words: qRT-PCR of IL-6 mRNA in left ventricle after TAC/sham. Here is the method:
as §1, §2, §3, §4, §5

The subject of assay [6] is MMP-9. In words: Gelatine zymography of MMP activity in left ventricular tissue after TAC. Here is the method: as §1
The first injection was performed 5 min prior to TAC or sham-operation procedure (described below) and repeated 4, 8, 12, 24, 36, 48 and 60 hrs after surgery. Animals were randomly assigned into two groups, receiving either a tetrasodium salt of the compound of formula 1 (hereinafter “Eritoran tetrasodium”) or placebo. The catheter was flushed with 50 μl 0.9% NaCl before and 100 μl after each injection of 50 μl Eritoran tetrasodium (2.5 mg/ml vehicle; 5 mg/kg bodyweight/application; dosage adopted from Shimamoto et al., Circulation 2006, 114: 1270-1274) or placebo solution. […]
For zymographic measurement of MMP activity, protein isolates from left ventricular tissue (60 μg protein content, isolated with NE-PER protein isolation kit; Pierce®) were mixed with 2× Tris-Glycine SDS sample buffer, and loaded on precast zymogram gels (SDS-PAGE; BioRad, Germany) containing […]. […] Areas of protease activity were detected as transparent bands against blue background. […]

Assay [7] deals with matrix metalloproteinase-9 (MMP-9). In words: qRT-PCR of MMP-9 mRNA in left ventricle after TAC/sham. The protocol: as §1, §2, §3, §4, §5
[8] abbreviates: Example 1, TAC, three days after surgery.
Setting [9] is: Example 2, TAC treated vs TAC-placebo.

The values that follow come from US20110201569A1, “Methods For Treating Myocardial Disorders” (priority 2009, published 2011).

Entries after “also recorded” stand apart in the source; their conditions may differ.

As for `CCCCCC/C=C\CCCCCCCCCC(=O)N[C@H]1[C@H](OC[C@H]2O[C@H](OP(=O)([O-])[O-])[C@H](NC(=O)CC(=O)CCCCCCCCCCC)[C@@H](OCCCCCCCCCC)[C@@H]2O)O[C@H](COC)[C@@H](OP(=O)([O-])[O-])[C@@H]1OCC[C@@H](CCCCCCC)OC.[Na+].[Na+].[Na+].[Na+]` [Eritoran tetrasodium], the “ANP mRNA expression” value in assay [1] (Example 1, TAC, vs TAC placebo, three days after surgery) was “markedly decreased BNP but not ANP expression”. Besides, the “IL-10 mRNA level” value in assay [2] (Example 1, TAC) worked out at 4.71 ± 1.22 b; in assay [2] (Example 1, sham operation), 3.81 ± 1.69 b. Also, in assay [2] (Example 1, in sham and TAC groups, p<0.05, Two-way Anova), the “elevation of IL-10 mRNA” value is on record as “three to four fold elevation”. Further, the “TIMP-4 mRNA expression” value in assay [3] (Example 1, sham and TAC groups, three days after surgery) is given as “no significant differences between groups”. Moreover, the “IL-6 protein expression (ELISA)” value in assay [4] (setting [8]) was “did not display significant increases; also recorded: lower levels of pro-inflammatory cytokines compared to TAC placebo hearts (not significant)”. In addition, the “IL-6 mRNA level” value in assay [5] (Example 1, TAC, three days after surgery, qRT-PCR, M ± SEM) is recorded as 16.60 ± 7.55. Besides, the “MMP (MMP-9) zymographic activity” value in assay [6] (setting [8]) is reported as “attenuated; also recorded: reduced zymographic activity of MMP-9”. Also, the “MMP-9 mRNA level” value in assay [7] (Example 1, TAC vs sham within treated groups, three days after surgery) is “remained unchanged by aortic banding”.
In the case of `CCCCCC/C=C\CCCCCCCCCC(=O)N[C@H]1[C@H](OC[C@H]2O[C@H](OP(=O)(O)O)[C@H](NC(=O)CC(=O)CCCCCCCCCCC)[C@@H](OCCCCCCCCCC)[C@@H]2O)O[C@H](COC)[C@@H](OP(=O)(O)O)[C@@H]1OCC[C@@H](CCCCCCC)OC` [compound of formula (I), α-D-Glucopyranose, 3-O-decyl-2-deoxy-6-O-[2-deoxy-3-O-[(3R)-3-methoxydecyl)-6-O-methyl-2-[[(−11Z)-1-oxo-11-octadecenyl)amino]-4-O-phosphono-β-D-glucopyranosyl]-2-[(1,3-dioxotetradecyl)amino]-1-(dihydrogen phosphate)], the “ANP mRNA expression” value in assay [1] (setting [9]) was “elevated in TAC-placebo mice compared to sham and the TAC groups treated”. For the same molecule, the “IL-10 mRNA expression” value in assay [2] (setting [9]) is given as “increased”. In addition, the “TIMP-4 mRNA expression” value in assay [3] (setting [9]) is listed as “higher”. For the same molecule, in assay [4] (Example 2, TAC treated group), the IL-6 protein expression result is recorded as “reduced”. In assay [5] (setting [9]), the “IL-6 mRNA expression” value is “lower”. The MMP-9 zymographic activity result in assay [6] (setting [9]) is “higher in the TAC-placebo animals compared to the TAC groups treated”. Further, in assay [7] (setting [9]), the “MMP-9 mRNA expression” value is on record as “higher in the TAC-placebo animals compared to the TAC groups treated”.
